Laboratory results as given in US6472381B1, “Method of treating psoriasis” (Biomas Inc., priority 2001, dated 2002).

Test system: psoriasis
Experiment: Separate tests of the single agents for treating psoriasis
Format: in vivo, human
Settings: agent used alone
Text: Salicylic acid alone was ineffective.

Structure (SMILES) | efficacy for treating psoriasis
O=C(O)c1ccccc1O [Salicylic acid, salicylic acid] | ineffective
Cl[Te]1(Cl)(Cl)OCCO1.N [ammonium trichloro (dioxoethylene-O,O′) tellurate] | effective for treating psoriasis but worked very slowly
